{"source": "patent US5541232A", "about": "“Treatment of multidrug resistant diseases” (Chemex Pharmaceuticals, Inc., priority 1994, dated 1996)", "key": {"[1]": {"system": "MCF7/ADR human breast adenocarcinoma cells", "assay": "flow cytometry P-glycoprotein function assay of doxorubicin efflux, MCF7/ADR (doxorubicin resistant)", "assay_type": "cell-based", "method": "The following tests were preformed to determine the effect of NDGA on efflux of doxorubicin (hereinafter sometimes referred to as DOX) for doxorubicin sensitive MCF7/0 and doxorubicin resistant MCF7/ADR human breast adenocarcinoma cells in vitro.\nThe cells were exposed to 50 μg/ml NDGA for 24 hrs prior to loading with DOX (doxorubicin) at 37° C. […] PBS. Flow analysis of cell efflux of DOX was collected over 30 minutes using the time parameter.\nProcedure for P-Glycoprotein (PGP) Function Assay of Doxorubicin Efflux is shown hereunder.\n1. […] Store at room temperature.\n2. Doxorubicin (GFW=580) Make a solution of doxorubicin to contain 10 μg/ml. Store frozen at 0° C.\n4. NDGA (MW=302.36) Make a solution of NDGA to contain 50 μg/ml. Store frozen at 0° C.\n5. MCF7/0 (Doxorubicin sensitive) and MCF7/ADR (Doxorubicin resistant), human breast adenocarcinoma cell lines.\n1. Make up 2×10^6 cells per ml in PBS. Expose 1 ml of cells to 50 μg of NDGA for 24 hrs at 37° C. prior to loading with Doxorubicin.\n2. Add 1 ml of 10 μg/ml doxorubicin, mix and divide into two aliquots.\n4. Incubate both tubes at 37° C. for 30 minutes.\n5. Centrifuge the tubes at 37° C. for 5 minutes on a fast spin to pellet cells. Resuspend in 1 ml of buffer.\n6. Run immediately on the flow cytometer. Excitation 488 nm, emission 560-600 nm. Collect forward and 90° side scatter and PMT4 linear scale. Collect 10,000-50,000 events and calculate the mean channel fluorescence (MCF) for PMT4.\n7. Run both samples as close together as possible, and avoid prolonged exposure to room temperature."}, "[2]": {"system": "Lung (LX-1) cancer cells", "assay": "in vitro cytotoxicity anti tumor activity", "assay_type": "cell-based", "details": "1 h; One Hour Pulse Treatment; read-out: IC50"}, "[3]": {"system": "OVCAR3 ovarian cancer cells", "assay": "in vitro cytotoxicity anti tumor activity", "assay_type": "cell-based", "details": "Homo sapiens, read-out: IC50"}, "[4]": {"system": "WI-38 Lung Fibroblasts", "assay": "in vitro cytotoxicity, normal cells", "assay_type": "cell-based", "details": "Homo sapiens, WI-38, 1 h; One Hour Pulse Treatment; read-out: IC50"}, "[5]": {"system": "Hs 68 Newborn Foreskin Fibroblasts", "assay": "in vitro cytotoxicity, normal cells", "assay_type": "cell-based", "details": "Homo sapiens, read-out: IC50"}, "[6]": {"system": "P-glycoprotein", "assay": "P-glycoprotein substrate", "assay_type": "cell-based, human", "details": "inferred from colony formation in GRC-1 vs KB-3-1", "description": "To investigate whether masoprocol modulates multidrug resistance, a line of multidrug resistant (GRC-1) cells which were derived from parenteral drug sensitive human cervical carcinoma (KB-3-1) cells by transfection of the mdr1 genes were employed. Such transfection was by the method set forth in Choi, et al., Cell 53:519-529, 1989. These cell lines differ only with respect to the over-expression of P-glycoprotein. These tests were designed to examine whether masoprocol modulates tumor cell drug resistance by interfering with P-glycoprotein function. […] See, Regulation of initial vinblastine influx by P-glycoprotein, Shalinsky, et al., cited above.\nFirst, cells which had been seeded at 200-300 cells/dish were incubated in media containing masoprocol or VBL. After an incubation period of 10 days at 37° C. the cells were fixed with methanol and stained with Giemsa, and the number of colonies per dish were counted and expressed as a percent of the number of colonies in control conditions. […] Parenthesis indicate standard deviations determined from replicate experiments."}, "[7]": {"system": "KB-3-1 human cervical carcinoma cells", "assay": "steady state accumulation of VBL, KB-3-1", "assay_type": "cell-based", "method": "(§1) At the desired time, the medium was aspirated and cells washed 5 times with ice cold PBS. Cells were digested overnight in 1N NaOH, at which time aliquots were used to determine protein content and radioactivity. The final concentration of VBL was 6 nM.\n(§2) Cells were incubated for one hour with media containing either tritiated vinblastine (^3 H]VBL) alone or containing [^3 H]VBL with 50 μM masoprocol. Cells were then washed with ice cold PBS and the amount of VBL accumulated in cells was determined using a scintillation counter. In FIG. 1 each data point represents the mean of replicate experiments performed with duplicate cultures. Vertical bars are +/- S.D."}, "[8]": {"system": "GRC-1 multidrug resistant human cervical carcinoma cells", "assay": "steady state accumulation of VBL, GRC-1", "assay_type": "cell-based", "method": "as §1, §2"}, "[9]": {"system": "KB-3-1 human cervical carcinoma cells", "assay": "initial influx of VBL, KB-3-1", "assay_type": "cell-based", "details": "50 μM masoprocol added concurrently with VBL, 3 to 24 seconds; FIG. 4b", "method": "(§3) A further test was conducted to show the effect of masoprocol on the initial influx of VBL. Cells were exposed to media containing [^3 H]VBL with and without 50 μM masoprocol. After incubation times ranging from 3 seconds to 24 seconds, the media was removed. The amount of VBL taken up by the cells was determined as described in A. The data was summarized from four replicate experiments. FIG. 4apresents the results for the GRC-1 cell line, and FIG. 4b for the KB-3-1 cell line."}, "[10]": {"system": "GRC-1 multidrug resistant human cervical carcinoma cells", "assay": "initial influx of VBL, GRC-1", "assay_type": "cell-based", "details": "50 μM masoprocol added concurrently with VBL, 3 to 24 seconds; FIG. 4a", "method": "as §3"}, "[11]": {"assay": "stability to oxidation", "assay_type": "physicochemical", "details": "for example, by air", "description": "The pH of the formulation is important in assuring stability of NDGA or its analogue as well as assuring that the formulation is physiologically acceptable to the patient. […] Such oxidation can result in discoloration of the formulation rendering it unacceptable for pharmaceutical use. […] Therefore, it is preferred that if the formulation is to be exposed to oxidizing conditions the pH to be maintained below about 7 and preferably below about 6 in order to provide maximum stability for the compound against oxidation. However, if the oxidizing conditions can be avoided, for example, by storage of the formulation under an inert atmosphere such as nitrogen, a higher pH can be used. The pH of the formulation may be maintained through the use of toxicologically-acceptable buffers. Such buffers are well-known in the pharmaceutical formulation art, and include hydrochloric acid buffer, acid phthalate buffer, phosphate buffer and citric acid/sodium citrate buffer."}, "[12]": {"system": "multidrug resistant tumor cells", "assay": "effects on vincristine (VBL substituted by vincristine in Example 3)", "assay_type": "cell-based", "description": "In accordance with the invention VBL can be substituted by vincristine in Example 3."}, "[13]": {"system": "benign, paramalignant and malignant growth of the skin", "details": "in combination with ionic zinc; cited from earlier work"}, "[14]": {"system": "mammals", "details": "in vivo; cited from earlier work"}, "[15]": {"details": "one hour, masoprocol with [3H]VBL"}}, "note": "Entries after “also recorded” stand apart in the source; their conditions may differ. Where two headings read alike, the source gives them in different places."}
{"smiles": "C[C@H](Cc1ccc(O)c(O)c1)[C@@H](C)Cc1ccc(O)c(O)c1", "note": "[Masoprocol, meso-1,4-bis (3,4-dihydroxyphenyl)-2,3-dimethylbutane]", "values": [{"measurement": "activation at 50 µg/mL", "setting": "[1]; Homo sapiens, NCI/ADR-RES, 24 h, read-out: % DOX increase w/NDGA", "result": 25.6, "unit": "%"}, {"measurement": "DOX loading / retention / efflux (in words)", "setting": "[1]; resistant cells, listed as NDGA", "result": "augmentation of DOX retention; also recorded: will inhibit the efflux of DOX"}, {"measurement": "IC50", "setting": "[2]", "result": 18, "unit": "µM"}, {"measurement": "IC50", "setting": "[3]; OVCAR-3, 1 h, One Hour Pulse Treatment", "result": 258, "unit": "µM"}, {"measurement": "IC50", "setting": "[3]; OVCAR-3, Continuous Drug Exposure, observation at 70 hours", "result": 35.9, "unit": "µM"}, {"measurement": "IC50", "setting": "[4]", "result": 159, "unit": "µM"}, {"measurement": "IC50", "setting": "[5]; Hs68, 1 h, One Hour Pulse Treatment", "result": 178, "unit": "µM"}, {"measurement": "IC50", "setting": "[5]; Hs68, Continuous Drug Exposure, observation at 70 hours", "result": 18, "unit": "µM"}, {"measurement": "P-glycoprotein substrate", "setting": "[6]", "result": "not a substrate for P-glycoprotein"}, {"measurement": "steady state accumulation of VBL, compared with verapamil", "setting": "[7]; 50 μM masoprocol", "result": "comparable to that of 10 μM verapamil"}, {"measurement": "steady state accumulation of VBL", "setting": "[7]; [15]", "result": "dose-dependent increase in the steady state accumulation of VBL; also recorded: increases the steady state accumulation of VBL"}, {"measurement": "steady state accumulation of VBL, compared with verapamil", "setting": "[8]; 50 μM masoprocol", "result": "comparable to that of 10 μM verapamil"}, {"measurement": "steady state accumulation of VBL", "setting": "[8]; [15]", "result": "dose-dependent increase in the steady state accumulation of VBL; also recorded: increases the steady state accumulation of VBL"}, {"measurement": "initial VBL uptake (influx)", "setting": "[9]", "result": "substantial increase in initial VBL uptake; also recorded: effective modulator of initial VBL influx; also recorded: promotes the initial uptake of VBL"}, {"measurement": "initial VBL uptake (influx)", "setting": "[10]", "result": "substantial increase in initial VBL uptake; also recorded: effective modulator of initial VBL influx; also recorded: promotes the initial uptake of VBL"}, {"measurement": "susceptibility to oxidation", "setting": "[11]", "result": "susceptible to oxidation"}, {"measurement": "effects on vincristine compared with VBL", "setting": "[12]", "result": "comparative effects"}, {"measurement": "effectiveness in treatment of growth of the skin", "setting": "[13]", "result": "effective"}, {"measurement": "retarding senescence or aging", "setting": "[14]", "result": "having efficacy in retarding senescence or aging in mammals"}]}
